We go through 33 molecules from ChEMBL document CHEMBL1144334, “Synthesis and structure-activity relationships of isoxazole carboxamides as growth hormone secretagogue receptor antagonists” (Bioorg Med Chem Lett, 2005).

A value given as a limit tells only on which side of the number the result lay.

For assay [1], the target named is T1, Growth hormone secretagogue receptor type 1 (Homo sapiens, UniProt Q92847). Put plainly: Inhibition of binding to human growth hormone secretagogue receptor.
In assay [2] the target is T1, Growth hormone secretagogue receptor type 1. The assay can be described thus: Inhibition of ghrelin-induced increase of intracellular [Ca2+] in CHO K cell FLIPR assay. It counts as functional, cell-based.
The subject of assay [3] is Rattus norvegicus. Put plainly: Oral bioavailability in rat. Type of assay: functional, organism-based.
Assay [4] is filed under the species Rattus norvegicus. Put plainly: Rate of metabolism measured in rat liver microsomes for 30 min. On the technique in general: Liver microsomes are a subcellular fraction often used to study metabolism.

T1 sequence (Q92847 whole entry): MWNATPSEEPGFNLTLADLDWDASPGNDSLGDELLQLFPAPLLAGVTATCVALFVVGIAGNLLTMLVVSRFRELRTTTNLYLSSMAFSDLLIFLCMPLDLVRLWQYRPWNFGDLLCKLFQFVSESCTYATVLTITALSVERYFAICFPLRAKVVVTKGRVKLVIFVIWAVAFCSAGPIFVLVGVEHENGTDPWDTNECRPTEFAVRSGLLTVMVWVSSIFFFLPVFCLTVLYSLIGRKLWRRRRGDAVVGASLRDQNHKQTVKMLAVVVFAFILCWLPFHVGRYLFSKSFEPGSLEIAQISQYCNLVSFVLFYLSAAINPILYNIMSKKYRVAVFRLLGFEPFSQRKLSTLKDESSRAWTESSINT

For orientation: IC50 means the concentration that inhibits the measured activity by half. As for `CCN(CC)c1ccc(NC(=O)c2c(-c3cccc(Cl)c3)noc2C)cc1`, in assay [1], the half-maximal inhibitory concentration (IC50) was determined as 18500 nM.
`Cc1onc(-c2c(Cl)cccc2Cl)c1C(=O)Nc1ccccc1CC1c2ccccc2CCN1C` (centres undefined): the 50% inhibitory concentration (IC50) in assay [1] was found to be 980 nM; in assay [2] it was 1700 nM.
As to `CCc1cc(N(CC)CC)ccc1NC(=O)c1c(-c2c(Cl)cccc2Cl)noc1C`, the results for the 50% inhibitory concentration (IC50) in assay [1] and in assay [2] were 370 nM and 41 nM, respectively.
Regarding `CCN(C)c1ccc(NC(=O)c2c(-c3c(Cl)cccc3Cl)noc2C)cc1`, the figures for the IC50 in assay [1] and in assay [2] were 5500 nM and 4700 nM, respectively.
With `Cc1onc(-c2c(Cl)cccc2Cl)c1C(=O)Nc1ccccc1C(=O)NCc1ccc2c(c1)OCO2`, the 50% inhibitory concentration (IC50) in assay [1] stood at 350 nM; in assay [2], 4900 nM.
For `O=C(Nc1ccccc1C(=O)N1CCCCC1)c1c(-c2c(Cl)cccc2Cl)noc1CCC1OCCCO1` the same measures were 7500 nM and 7400 nM.
`CCN(CC)c1ccc(NC(=O)c2c(-c3c(Cl)cccc3Cl)noc2C)cc1Cl`: the half-inhibitory concentration (IC50) in assay [1] was more than 10000 nM.
Turning to `CCN(CC)c1ccc(NC(=O)c2c(-c3c(Cl)cccc3Cl)noc2C)c(C)c1`, the IC50 in assay [1] turned out to be 37 nM; in assay [2], 39 nM. In the assay with Rattus norvegicus [3], this molecule displayed a bioavailability of 1%.
On to `CCN(CC)c1ccc(NC(=O)c2c(-c3c(Cl)cccc3Cl)noc2C)c(C(F)(F)F)c1`, for which the IC50 was 4100 nM in assay [1] and more than 10000 nM in assay [2].
On to `CCN(CC)c1ccc(NC(=O)c2c(-c3c(Cl)cccc3Cl)noc2C)c(C#N)c1`, for which the concentration for half-maximal inhibition (IC50) in assay [1] amounted to 9000 nM; in assay [2] it was 4500 nM.
Take `CCN(CC)c1ccc(NC(=O)c2c(-c3c(Cl)cccc3Cl)noc2CCC2OCCCO2)cc1`: in assay [2], the IC50 came to 14 nM.
Regarding `Cc1onc(-c2c(Cl)cccc2Cl)c1C(=O)Nc1ccccc1C(=O)N1CCCCCC1`, the IC50 came to 860 nM in assay [1] and 510 nM in assay [2].
Turning to `CCN(CC)c1ccc(NC(=O)c2c(-c3ccccc3Br)noc2C)cc1`, the results for the IC50 in assay [1] and in assay [2] were 340 nM and 280 nM, respectively.
As for `Cc1onc(-c2c(Cl)cccc2Cl)c1C(=O)Nc1ccc(N2CCCCC2)cc1`, in assay [1], the 50% inhibitory concentration (IC50) is more than 10000 nM.
For the molecule `CCN(CC)c1ccc(NC(=O)c2c(-c3ccc(Cl)cc3)noc2C)cc1`, the IC50 is 7100 nM in assay [1] and 6000 nM in assay [2].
Turning to `CCN(CC)c1ccc(NC(=O)c2c(-c3c(Cl)cccc3Cl)noc2CCC2OCCCO2)c(C)c1`, the half-inhibitory concentration (IC50) in assay [1] was found to be 9 nM; in assay [2], 10 nM.
Consider `CCN(CCO)c1ccc(NC(=O)c2c(-c3c(Cl)cccc3Cl)noc2C)cc1`, for which the IC50 was found to be 9200 nM in assay [1] and 3100 nM in assay [2].
Turning to `CCN(CC)Cc1ccc(NC(=O)c2c(-c3c(Cl)cccc3Cl)noc2C)cc1`, the half-inhibitory concentration (IC50) in assay [1] is more than 10000 nM.
Take `CCN(CC)c1ccc(NC(=O)c2c(-c3c(Cl)cccc3Cl)noc2C)cc1C`: the figures for the half-maximal inhibitory concentration (IC50) in assay [1] and in assay [2] were more than 100 nM and more than 10000 nM, respectively.
`CCN(C(C)=O)c1ccc(NC(=O)c2c(-c3c(Cl)cccc3Cl)noc2C)cc1` yielded an IC50 in assay [1] of more than 10000 nM.
Take `CCN(CC)c1ccc(NC(=O)c2c(-c3ccccc3-c3ccccc3)noc2C)cc1`: the IC50 in assay [1] came out at 1300 nM; in assay [2], 6300 nM.
Consider `CCN(CC)c1ccc(NC(=O)c2c(-c3ccccc3)noc2C)cc1`, for which the IC50 in assay [1] came to 8200 nM; in assay [2], 7600 nM.
For the molecule `CCCN(CC)c1ccc(NC(=O)c2c(-c3c(Cl)cccc3Cl)noc2C)cc1`, the half-maximal inhibitory concentration (IC50) turned out to be 410 nM in assay [1] and 510 nM in assay [2].
Turning to `CCN(CC)c1ccc(NC(=O)c2c(-c3c(Cl)cccc3Cl)noc2C)cc1`, in the assay listed under Rattus norvegicus [4], the Rate of metabolism was determined as 800 pM/mg/min. The bioavailability in the assay on Rattus norvegicus [3] was determined as 4%.
For `CCN(CC)c1ccc(NC(=O)c2c(-c3ccccc3Cl)noc2C)cc1`, the IC50 in assay [1] worked out at 690 nM; in assay [2], 250 nM.
In the case of `CCN(CC)c1ccc(NC(=O)c2c(-c3ccccc3[N+](=O)[O-])noc2C)cc1`, the IC50 in assay [1] stood at 550 nM; in assay [2] it was 620 nM.
With `Cc1onc(-c2c(Cl)cccc2Cl)c1C(=O)Nc1ccccc1C(=O)NCc1ccccc1`, the IC50 in assay [1] came to 1200 nM; in assay [2], 10500 nM.
On to `CCN(CC)C(=O)c1ccccc1NC(=O)c1c(-c2c(Cl)cccc2Cl)noc1C`, for which the IC50 in assay [1] was 1900 nM; in assay [2], 2500 nM.
The molecule `CCNc1ccc(NC(=O)c2c(-c3c(Cl)cccc3Cl)noc2C)cc1` came in with a half-inhibitory concentration (IC50) in assay [1] of more than 10000 nM.
As for `CCC(CC)c1ccc(NC(=O)c2c(-c3c(Cl)cccc3Cl)noc2C)cc1`, the IC50 in assay [1] is more than 10000 nM.
For `Cc1onc(-c2c(Cl)cccc2Cl)c1C(=O)Nc1ccccc1C(=O)N1CCCCC1`, the IC50 was 2200 nM in assay [1] and 2300 nM in assay [2].
As to `CCN(CC)c1ccc(NC(=O)c2c(-c3c(Cl)cccc3Cl)noc2C)c(OC)c1`, the concentration for half-maximal inhibition (IC50) was 600 nM in assay [1] and 2900 nM in assay [2].
As to `CCN(CC)c1ccc(NC(=O)c2c(-c3ccccc3OC)noc2C)cc1`, the IC50 in assay [1] was found to be 4000 nM; in assay [2], 6800 nM.
